BindingDB's records for patent US11547697 (Millennium Pharmaceuticals, 2023)

Legend:
Test in all cases: Inhibition Assay of PI3K
[1] = target: Phosphatidylinositol 4,5-bisphosphate 3-kinase catalytic subunit gamma isoform (Homo sapiens, UniProt P48736)
[2] = target: T1, Phosphatidylinositol 4,5-bisphosphate 3-kinase catalytic subunit delta isoform (Homo sapiens, UniProt O00329)
T1 sequence (O00329 whole entry): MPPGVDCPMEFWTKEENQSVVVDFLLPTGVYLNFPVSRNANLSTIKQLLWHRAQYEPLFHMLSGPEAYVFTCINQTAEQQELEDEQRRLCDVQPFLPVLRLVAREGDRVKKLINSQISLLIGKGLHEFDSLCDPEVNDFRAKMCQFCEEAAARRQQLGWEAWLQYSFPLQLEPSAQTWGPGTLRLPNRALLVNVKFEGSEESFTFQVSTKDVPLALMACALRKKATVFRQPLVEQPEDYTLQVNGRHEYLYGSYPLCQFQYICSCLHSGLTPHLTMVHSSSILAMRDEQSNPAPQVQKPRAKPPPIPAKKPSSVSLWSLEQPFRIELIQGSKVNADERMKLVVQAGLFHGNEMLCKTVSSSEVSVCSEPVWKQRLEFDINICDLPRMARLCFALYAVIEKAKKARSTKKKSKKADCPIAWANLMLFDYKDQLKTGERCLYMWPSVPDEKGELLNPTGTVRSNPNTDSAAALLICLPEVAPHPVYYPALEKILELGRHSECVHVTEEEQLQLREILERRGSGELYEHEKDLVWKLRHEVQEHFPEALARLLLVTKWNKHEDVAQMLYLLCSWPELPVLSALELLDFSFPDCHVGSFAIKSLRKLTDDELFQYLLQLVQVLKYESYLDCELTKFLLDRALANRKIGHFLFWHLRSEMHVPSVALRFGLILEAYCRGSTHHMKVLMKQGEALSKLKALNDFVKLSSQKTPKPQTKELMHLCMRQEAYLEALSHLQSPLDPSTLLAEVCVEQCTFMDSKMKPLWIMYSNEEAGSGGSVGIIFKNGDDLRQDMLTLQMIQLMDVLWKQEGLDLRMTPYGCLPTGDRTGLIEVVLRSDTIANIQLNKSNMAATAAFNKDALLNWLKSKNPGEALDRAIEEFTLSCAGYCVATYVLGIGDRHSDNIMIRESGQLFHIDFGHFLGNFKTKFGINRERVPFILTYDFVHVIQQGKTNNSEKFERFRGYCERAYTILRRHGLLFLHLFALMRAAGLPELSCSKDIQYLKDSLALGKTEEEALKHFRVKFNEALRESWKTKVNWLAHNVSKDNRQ

[3] = target: Phosphatidylinositol 4,5-bisphosphate 3-kinase catalytic subunit beta isoform (Homo sapiens, UniProt P42338)
Sequence of Phosphatidylinositol 4,5-bisphosphate 3-kinase catalytic subunit beta isoform (P42338 whole entry, canonical isoform): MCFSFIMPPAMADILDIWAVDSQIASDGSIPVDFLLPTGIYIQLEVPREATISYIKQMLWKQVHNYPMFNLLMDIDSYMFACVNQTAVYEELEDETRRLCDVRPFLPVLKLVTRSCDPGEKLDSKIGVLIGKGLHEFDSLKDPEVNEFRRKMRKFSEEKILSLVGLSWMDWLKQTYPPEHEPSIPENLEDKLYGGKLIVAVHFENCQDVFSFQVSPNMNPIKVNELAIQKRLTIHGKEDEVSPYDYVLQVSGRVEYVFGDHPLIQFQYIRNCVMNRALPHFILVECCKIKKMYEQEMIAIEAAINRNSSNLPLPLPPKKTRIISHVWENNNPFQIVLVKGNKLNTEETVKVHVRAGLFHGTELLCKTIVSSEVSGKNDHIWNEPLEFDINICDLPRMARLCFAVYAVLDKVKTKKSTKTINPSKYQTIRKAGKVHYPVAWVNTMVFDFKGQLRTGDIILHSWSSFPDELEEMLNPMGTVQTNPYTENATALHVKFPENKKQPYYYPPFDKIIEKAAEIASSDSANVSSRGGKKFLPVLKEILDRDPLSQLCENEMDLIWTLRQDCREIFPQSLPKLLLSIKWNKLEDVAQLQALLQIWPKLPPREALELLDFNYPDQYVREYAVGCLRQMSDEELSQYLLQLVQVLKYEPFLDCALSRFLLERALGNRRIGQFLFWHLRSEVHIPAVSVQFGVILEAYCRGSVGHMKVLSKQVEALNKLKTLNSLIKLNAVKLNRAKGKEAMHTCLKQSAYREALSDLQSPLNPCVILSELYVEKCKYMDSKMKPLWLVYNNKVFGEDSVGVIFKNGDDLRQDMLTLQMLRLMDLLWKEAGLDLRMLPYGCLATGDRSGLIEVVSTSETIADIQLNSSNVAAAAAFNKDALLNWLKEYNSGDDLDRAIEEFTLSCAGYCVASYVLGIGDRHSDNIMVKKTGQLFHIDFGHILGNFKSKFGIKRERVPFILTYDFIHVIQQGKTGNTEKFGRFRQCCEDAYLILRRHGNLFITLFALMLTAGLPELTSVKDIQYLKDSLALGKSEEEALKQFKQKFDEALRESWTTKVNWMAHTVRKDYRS

Sequence of Phosphatidylinositol 4,5-bisphosphate 3-kinase catalytic subunit gamma isoform (P48736 whole entry, canonical isoform): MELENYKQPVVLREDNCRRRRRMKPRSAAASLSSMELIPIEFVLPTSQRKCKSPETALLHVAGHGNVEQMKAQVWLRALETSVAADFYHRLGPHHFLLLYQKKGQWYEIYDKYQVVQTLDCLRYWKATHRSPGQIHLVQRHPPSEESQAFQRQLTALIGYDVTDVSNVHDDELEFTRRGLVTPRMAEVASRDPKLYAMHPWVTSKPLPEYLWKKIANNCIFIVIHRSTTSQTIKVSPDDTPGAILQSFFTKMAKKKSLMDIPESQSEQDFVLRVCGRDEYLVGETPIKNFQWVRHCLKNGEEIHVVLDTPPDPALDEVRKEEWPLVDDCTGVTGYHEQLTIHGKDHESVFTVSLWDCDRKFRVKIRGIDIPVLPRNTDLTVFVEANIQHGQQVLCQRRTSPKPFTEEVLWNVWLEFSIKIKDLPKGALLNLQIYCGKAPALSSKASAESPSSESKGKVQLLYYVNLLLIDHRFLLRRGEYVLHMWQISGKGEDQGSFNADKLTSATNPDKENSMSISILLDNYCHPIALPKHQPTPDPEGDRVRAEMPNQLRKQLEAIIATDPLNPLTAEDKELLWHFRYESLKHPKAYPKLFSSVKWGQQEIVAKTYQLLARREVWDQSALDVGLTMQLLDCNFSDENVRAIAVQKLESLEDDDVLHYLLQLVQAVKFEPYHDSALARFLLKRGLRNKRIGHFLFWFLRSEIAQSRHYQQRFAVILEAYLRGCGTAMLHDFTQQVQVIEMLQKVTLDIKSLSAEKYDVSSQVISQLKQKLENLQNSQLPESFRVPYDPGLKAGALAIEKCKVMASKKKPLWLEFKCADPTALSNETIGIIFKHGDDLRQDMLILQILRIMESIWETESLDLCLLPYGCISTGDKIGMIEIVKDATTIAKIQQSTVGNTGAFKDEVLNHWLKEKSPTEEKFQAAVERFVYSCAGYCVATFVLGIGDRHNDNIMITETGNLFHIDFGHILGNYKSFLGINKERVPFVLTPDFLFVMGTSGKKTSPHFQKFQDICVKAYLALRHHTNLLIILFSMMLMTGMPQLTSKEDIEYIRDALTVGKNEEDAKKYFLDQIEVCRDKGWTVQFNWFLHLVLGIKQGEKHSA

| IC50 [1] | IC50 [2] | IC50 [3] | Structure (SMILES) |
| --- | --- | --- | --- |
| > 10 µM | > 10 µM | > 10 µM | Nc1ncc(-c2cnc3ccc(-c4ccc5oc(N)nc5c4)cc3n2)cn1 [US11547697, Compound 210] |
| > 10 µM | > 10 µM | – | Cc1cc2oc(N)nc2cc1-c1ccc2ncc(N3CCN[C@@H](C)C3)nc2c1 [US11547697, Compound 351] |
| > 10 µM | > 10 µM | > 10 µM | Nc1nc2ccc(-c3ccc4nnc(C(=O)N5CCCC5)n4c3)cc2o1 [US11547697, Compound 305] |
| > 10 µM | > 10 µM | > 10 µM | Cn1c(N2CCOCC2)nc2cc(-c3ccc4oc(N)nc4c3)ccc2c1=O [US11547697, Compound 80] |
| > 10 µM | > 10 µM | > 10 µM | COc1ccc(-c2ccc3ncc(C(=O)N4CCOCC4)n3c2)cc1S(=O)(=O)Nc1ccccc1 [US11547697, Compound 444] |
| > 10 µM | > 10 µM | > 10 µM | Nc1nc2ccc(-c3cc(F)c4ncc(C(=O)N5CCOCC5)n4c3)cc2o1 [US11547697, Compound 439] |
| > 10 µM | > 10 µM | – | Nc1nc2ccc(-c3ccc4nnc(-c5cccnc5)n4c3)cc2o1 [US11547697, Compound 301] |
| > 10 µM | > 10 µM | > 10 µM | Nc1nsc2cc(-c3ccc4ncc(C(=O)N5CCOCC5)n4c3)ccc12 [US11547697, Compound 489] |
| > 10 µM | > 10 µM | > 10 µM | CNS(=O)(=O)c1cncc(-c2ccc3ncc(C(=O)N4CCOCC4)n3c2)c1 [US11547697, Compound 450] |
| > 10 µM | > 10 µM | – | Nc1nc2cc(-c3ccc4ncc(C(=O)N5CCNCC5)n4c3)ccc2o1 [US11547697, Compound 111] |
| > 10 µM | > 10 µM | > 10 µM | Nc1ncc(-c2ccc3ncc(C(=O)N4CCOCC4)n3c2)cc1C(F)(F)F [US11547697, Compound 410] |
| > 10 µM | > 10 µM | > 10 µM | Nc1nc2cc(-c3ccc4ncc(-c5ccc(N6CCOCC6)nc5)nc4c3)ccc2o1 [US11547697, Compound 167] |
| > 10 µM | > 10 µM | > 10 µM | Nc1nc2cc(-c3ccc4ncc(C(=O)N5CCOCC5)nc4c3)ccc2o1 [US11547697, Compound 158] |
| > 10 µM | > 10 µM | > 10 µM | Cc1nc(NC(=O)N2CCC[C@H]2C(N)=O)sc1-c1ccc2oc(N)nc2c1 [US11547697, Compound 311] |
| > 10 µM | > 10 µM | > 10 µM | CN1CCN(C(=O)c2cnc3ccc(-c4ccc5oc(N)nc5c4)cc3n2)CC1 [US11547697, Compound 157] |
| > 10 µM | > 10 µM | > 10 µM | Cc1ncccc1-c1cnc2ccc(-c3ccc4oc(N)nc4c3)cc2n1 [US11547697, Compound 185] |
| > 10 µM | > 10 µM | – | CNc1nc2cc(-c3ccc4ncc(C(=O)N5CCOCC5)n4c3)ccc2o1 [US11547697, Compound 406] |
| > 10 µM | > 10 µM | > 10 µM | Nc1nc2cc(-c3ccc4ncc(-c5ccccc5)nc4c3)ccc2o1 [US11547697, Compound 180] |
| > 10 µM | > 10 µM | – | Nc1nc2cc(-c3ccc4ncc(C(=O)N5CCC(N)CC5)n4c3)ccc2o1 [US11547697, Compound 204] |
| > 10 µM | > 10 µM | > 10 µM | Nc1nc2cccc(-c3ccc4ncc(C(=O)N5CCOCC5)n4c3)c2s1 [US11547697, Compound 485] |
| > 10 µM | > 10 µM | – | CN1CCC(c2cnc3ccc(-c4ccc5oc(N)nc5c4)cc3n2)CC1 [US11547697, Compound 385] |
| > 10 µM | > 10 µM | > 10 µM | Nc1nc2cc(-c3ccc4ncc(C(=O)N5CCOCC5)cc4c3)ccc2o1 [US11547697, Compound 97] |
| > 10 µM | > 10 µM | – | Nc1nc2cc(-c3ccc4nnc(-c5cccnc5)n4c3)ccc2o1 [US11547697, Compound 300] |

| IC50 [1] | IC50 [2] | IC50 [3] | Structure (SMILES) |
| --- | --- | --- | --- |
| > 10 µM | > 10 µM | > 10 µM | Nc1cc(-c2ccc3ncc(C(=O)N4CCOCC4)n3c2)cnc1Cl [US11547697, Compound 415] |
| > 10 µM | > 10 µM | – | C[C@H]1CN(c2cnc3ccc(-c4ccc5sc(N)nc5c4)cc3n2)CCN1 [US11547697, Compound 307] |
| > 10 µM | > 10 µM | > 10 µM | CN1CCN(n2cnc3ccc(-c4ccc5oc(N)nc5c4)cc3c2=O)CC1 [US11547697, Compound 446] |
| > 10 µM | > 10 µM | > 10 µM | CN1CCN(CCCn2cnc3ccc(-c4ccc5oc(N)nc5c4)cc3c2=O)CC1 [US11547697, Compound 291] |
| > 10 µM | > 10 µM | > 10 µM | Nc1nc2cc(-c3ccc4ncc(-c5ccnc(N6CCOCC6)c5)nc4c3)ccc2o1 [US11547697, Compound 150] |
| > 10 µM | > 10 µM | – | CCN1CCC(n2cnc3ccc(-c4ccc5oc(N)nc5c4)cc3c2=O)CC1 [US11547697, Compound 73] |
| > 10 µM | > 10 µM | – | COC(=O)N1CCC(n2ncc3c(N4CCOCC4)nc(-c4ccc5oc(N)nc5c4)nc32)CC1 [US11547697, Compound 330] |
| > 10 µM | > 10 µM | > 10 µM | COc1ncc(-c2ccc3ncc(C(=O)N4CCOCC4)n3c2)cc1N [US11547697, Compound 414] |
| > 10 µM | > 10 µM | > 10 µM | Nc1nc2cc(-c3ccc4ncn(C5CCCC5)c(=O)c4c3)ccc2o1 [US11547697, Compound 256] |
| > 10 µM | > 10 µM | > 10 µM | Nc1nc2cc(-c3ccc4ncc(N5CCOCC5)n4c3)ccc2o1 [US11547697, Compound 53] |
| > 10 µM | > 10 µM | > 10 µM | Nc1nc2cc(-c3ccc4ncc(C(=O)N5CCOCC5)n4c3)c(Cl)cc2o1 [US11547697, Compound 370] |
| > 10 µM | > 10 µM | > 10 µM | CN1CCN(c2nc3cc(-c4ccc5oc(N)nc5c4)ccc3c(=O)n2C)CC1 [US11547697, Compound 79] |
| > 10 µM | > 10 µM | > 10 µM | Nc1nsc2c(-c3ccc4ncc(C(=O)N5CCOCC5)n4c3)cccc12 [US11547697, Compound 474] |
| > 10 µM | > 10 µM | > 10 µM | Nc1nc2ccc(-c3ccc4ncn(C5CCOCC5)c(=O)c4c3)cc2o1 [US11547697, Compound 63] |
| > 10 µM | > 10 µM | – | Nc1nc2cc(-c3ccc4ncc(N5CC(N6CCOCC6)C5)nc4c3)c(Cl)cc2o1 [US11547697, Compound 371] |
| > 10 µM | > 10 µM | – | CC(C)N1CCN(C(=O)c2cnc3ccc(-c4ccc5oc(N)nc5c4)cn23)CC1 [US11547697, Compound 160] |
| > 10 µM | > 10 µM | – | CN1CCN(C(=O)c2cnc3ccc(-c4ccc5nc(N)sc5c4)cn23)CC1 [US11547697, Compound 146] |
| > 10 µM | – | > 10 µM | CN1CCN(C2CN(C(=O)c3cnc4ccc(-c5ccc6oc(N)nc6c5)cn34)C2)CC1 [US11547697, Compound 303] |
| > 10 µM | > 10 µM | – | CN1CCCN(C(=O)c2cnc3ccc(-c4ccc5oc(N)nc5c4)cn23)CC1 [US11547697, Compound 140] |
| > 10 µM | – | > 10 µM | CCN(CC)CCCn1cnc2ccc(-c3ccc4oc(N)nc4c3)cc2c1=O [US11547697, Compound 281] |
| > 10 µM | > 10 µM | – | CC(=O)N1CCC(n2cnc3ccc(-c4ccc5oc(N)nc5c4)cc3c2=O)CC1 [US11547697, Compound 66] |
| > 10 µM | > 10 µM | – | CN1CCN(C(=O)c2cnc3ccc(-c4ccc5sc(N)nc5c4)cn23)CC1 [US11547697, Compound 144] |
| > 10 µM | > 10 µM | – | CN1CC(n2cnc3ccc(-c4ccc5oc(N)nc5c4)cc3c2=O)C1 [US11547697, Compound 528] |

| Structure (SMILES) | IC50 [1] | IC50 [2] | IC50 [3] |
| --- | --- | --- | --- |
| Cc1cc2oc(N)nc2cc1-c1ccc2ncc(N3CC(N4CCOCC4)C3)nc2c1 [US11547697, Compound 353] | > 10 µM | > 10 µM | > 10 µM |
| Nc1nc2cc(-c3ccc4ncn(C5CCOCC5)c(=O)c4c3)ccc2o1 [US11547697, Compound 55] | > 10 µM | > 10 µM | – |
